Source: patent publication US20150299233A1, “COMPOSITIONS AND METHODS COMPRISING RHENIUM FOR THE TREATMENT OF CANCERS” (Massachusetts Institute of Technology, priority 2014, published 2015)
Read-outs that look alike come from different tables or passages of the source.

Experiments:
C57BL/6 mice = experiment: In vivo acute toxicity in mice; conditions: single i.p. doses 3-36 mg/kg in saline, monitored 6 days
Description: In Vivo Toxicity and Stability in Whole Human Blood. Given the impressive in vitro data acquired for 1 and 2, an in vivo study was conducted with C57BL/6 mice to determine acute toxicity and possible side effects. Single doses of 1 and 2 (3, 7, 11,15, 20, and 36 mg/kg) in saline were administered by intraperitoneal injection. The mice were then monitored for signs of pain, distress, and weight loss for 6 days post-treatment. […] The pharmacological toxicity profile of 1 and 2 is very appealing in terms of further preclinical studies.

NTERA-2 = experiment: MTT cytotoxicity assay, NTERA-2 cells; type: cell-based, human; conditions: Table 1; 72 h exposure; ± standard deviation; read-out: IC50 NTERA-2 testis carcinoma
MRC-5 = experiment: MTT cytotoxicity assay, MRC-5 normal lung fibroblasts; type: cell-based, human; conditions: for selectivity over normal fibroblast cells (IC50 higher in normal fibroblasts than in cancer cells): cancer cells versus normal fibroblast cells
Description: In vitro toxicity of the rhenium (v) oxo complexes, 1 and 2 towards a panel of human cell lines was determined using the colorimetic MTT [[3-(4,5-dimethylithiazol-2-yl)-2,5-diphenyltetrazolium bromide] assay.
The in vitro effect of rhenium(V) oxo complexes 1 and 2 toward a panel of human cell lines was determined by the colorimetric MTT [3-(4,5-dimethylthiazol-2-yl)-2,5-diphenyltetrazolium bromide] assay. […] The IC50 values, or concentration required to induce 50% cell death, were derived from dose—response curves and are summarized in Table 1.
Cells (2×10^3 cells/well) were seeded in a 96-well plate. […] 1 and 2 were prepared as 10 mM solutions in DMSO and diluted using media. The final concentration of DMSO in each well was 0.5%, and this amount was also present in the untreated control. After 72 h, the medium was removed, 200 μL of a 0.4 mg/mL solution of MTT in DMEM, RPMI, or McCoy's 5A was added, and the plate was incubated for an additional 1-2 h. The DMEM/MTT, RPMI/MTT, or McCoy's 5A/MTT mixture was aspirated, and 200 μL of DMSO was added to dissolve the resulting purple formazan crystals. The absorbance of the solution wells was read at 550 nm. Absorbance values were normalized to DMSO-containing control wells and plotted as the concentration of test compound versus % cell viability. IC50 values were interpolated from the resulting dose-dependent curves. The reported IC50 values are the average from at least three independent experiments, each of which consisted of six replicates per concentration level.

[1] = system: DU 145 (prostate carcinoma); experiment: MTT cytotoxicity assay, DU 145 cells; type: cell-based, human; conditions: Table 2; cisplatin-resistant cell line; 72 h exposure; read-out: IC50 DU 14S prostate carcinoma
[2] = system: PC-3 (prostate adenocarcinoma); experiment: MTT cytotoxicity assay, PC-3 cells; type: cell-based, human; conditions: Table 2; cisplatin-resistant cell line; 72 h exposure
[3] = system: HeLa cervical adenocarcinoma cells; experiment: MTT cytotoxicity assay, HeLa cells; type: cell-based, human
HT-29 = experiment: Cytotoxicity in the presence of necrostatin-1, HT-29 cells; type: cell-based, human; conditions: necrostatin-1 60 μM, t test p<0.05
Description: In order to determine the cell-killing mechanism of 1 and 2, cytotoxicity studies in the presence of apoptosis and necrosis inhibitors were conducted. […] The possibility that 1 and 2 induce necroptosis was then investigated. Necroptosis is a well-regulated mode of cell death that is different from unregulated necrosis and apoptosis. Unlike unregulated necrosis, which can be induced by H2O2 or heat, necroptosis generally involved the interaction of protein kinases, RIP1 and RIP3, to initiate cell disintegration. This process can be blocked by necrostatin-1, a potent RIP1 kinase inhibitor. To determine whether 1 and 2 induced necroptosis and/or uncontrolled necrosis, cytotoxicity studies were conducted in the presence of necrostatin-1 (60 μM) and IM-54 (10 μM), an inhibitor of H2O2-induced necrosis. […] Therefore, 1- and 2-induced cell death relies on RIP1-RIP3 complex formation and not on the expression levels of the individual protein kinases. RIP1 can also form a cytosolic complex with Fas-associated death domain (FADD) and caspase 8, known as a ripoptosome, to initiate apoptosis (through caspase 8 cleavage).
Cytotoxicity MTT Assay. […] Cells (2×10^3 cells/well) were seeded in a 96-well plate. […] The absorbance of the solution wells was read at 550 nm. Absorbance values were normalized to DMSO-containing control wells and plotted as the concentration of test compound versus % cell viability. […]

[4] = system: HCT116 p53+/+ and HCT116 p53−/− cells; experiment: Cytotoxicity in HCT116 p53+/+ versus p53-/- cells; type: cell-based; conditions: 72 h, FIG. 3B
Description: (PARP-1). PARP-1 is a nuclear enzyme that is involved in DNA repair and transcriptional regulation. DNA damage can trigger PARP-1 activity, resulting in ATP and NAD depletion and bioenergetics- mediated cell death. To determine whether PARP-1 activity is a factor in 1- and 2-mediated cell death, cytotoxicity assays were conducted with wild-type mouse embryonic fibroblast cells (MEFs PARP-1+/+) and the corresponding PARP-1-null cells (MEFs PARP-1−/−). […] Recently, p53 has also been reported to play a role in necroptosis. p53 induces cathepsin Q, a lysosomal protease that cooperates with ROS to execute necrosis. To investigate whether p53 might play a role in 1- and 2-mediated necroptosis, cytotoxicity studies were conducted with HCT116 p53^+/+ nd HCT116 p53^−/− cells.
Cell Cycle Analysis. To gain a more complete understanding of the cellular response evoked, DNA-flow cytometric studies were conducted to determine the effect of 1 and 2 on the cell cycle. A549 cells were treated with 1 or 2 (2 μM), and the cell cycle was determined over the course of 72 h. […] Upon further incubation (72 h), large populations of cell debris were detected (32%), indicative of cell death. […]
Cytotoxicity MTT Assay. […] The absorbance of the solution wells was read at 550 nm. Absorbance values were normalized to DMSO-containing control wells and plotted as the concentration of test compound versus % cell viability. […]

[5] = system: HT-29 (colorectal adenocarcinoma); experiment: MTT cytotoxicity assay, HT-29 cells; type: cell-based, human; conditions: for IC50: Table 2, cisplatin-resistant cell line, 72 h exposure; for IC50 lower in HT-29 cells than IC50 of cisplatin: ratio to cisplatin
Description: Cytotoxicity MTT Assay. […] Cells (2×10^3 cells/well) were seeded in a 96-well plate. […] The final concentration of DMSO in each well was 0.5%, and this amount was also present in the untreated control. After 72 h, the medium was removed, 200 μL of a 0.4 mg/mL solution of MTT in DMEM, RPMI, or McCoy's 5A was added, and the plate was incubated for an additional 1-2 h. The DMEM/MTT, RPMI/MTT, or McCoy's 5A/MTT mixture was aspirated, and 200 μL of DMSO was added to dissolve the resulting purple formazan crystals. The absorbance of the solution wells was read at 550 nm. Absorbance values were normalized to DMSO-containing control wells and plotted as the concentration of test compound versus % cell viability. IC50 values were interpolated from the resulting dose-dependent curves. The reported IC50 values are the average from at least three independent experiments, each of which consisted of six replicates per concentration level.

[6] = system: cisplatin-resistant ovarian carcinoma cells (A2780CP70); experiment: MTT cytotoxicity assay, A2780CP70 cells; type: cell-based, human
[7] = system: MDA-MB-231 (breast adenocarcinoma); experiment: MTT cytotoxicity assay, MDA-MB-231 cells; type: cell-based, human; conditions: Table 2; cisplatin-resistant cell line; 72 h exposure; read-out: IC50 MDA-M8-231 breast adenocarcinoma
U2OS = experiment: MTT cytotoxicity assay, U2OS cells; type: cell-based, human
[8] = Table 1, 72 h exposure, ± standard deviation, read-out: IC50 MRC-5 lung fibroblast
[9] = Table A, average of three independent determinations, read-out: IC50 MRC5 (lung normal)
[10] = Table 1, 72 h exposure, ± standard deviation, read-out: IC50 HeLa cervical adenocarcinoma
[11] = Table A, average of three independent determinations, read-out: IC50 HeLa (cervical)
[12] = Table 1, 72 h exposure, ± standard deviation, read-out: IC50 A2780CP70 ovarian carcinoma
[13] = Table A, average of three independent determinations, read-out: IC50 A280CP70 (ovarian)
[14] = Table 1, 72 h exposure, ± standard deviation, read-out: IC50 U2OS bone osteosarcoma
[15] = Table A, average of three independent determinations, read-out: IC50 U2OS (bone)

`C[O][Re](=[O])([Cl])[Cl].c1ccc(-c2ccnc3c2ccc2c(-c4ccccc4)ccnc23)cc1` [Compound 1, [ReO(OMe)(4,7-diphenyl-1,10-phenanthroline)-Cl2]] was tested, and the “acute toxicity in mice, gauged by weight loss” value (C57BL/6 mice) was “no toxicity”, the IC50 (NTERA-2) was 230 ± 28 nM and the IC50 (MRC-5; [8]) was 1350 ± 228 nM. For the same molecule, the IC50 (MRC-5; [9]) was 1350 ± 228 nM, the “selectivity over normal fibroblast cells (IC50 higher in normal fibroblasts than in cancer cells)” value (MRC-5) was “about 10 fold” and the IC50 [1] was 2840 ± 381 nM. For the same molecule, the IC50 [2] was 270 ± 14 nM, the IC50 [3, 10] was 445 ± 4 nM and the IC50 [3, 11] was 445 nM. The “effect of co-incubation with necrostatin-1 on toxicity, HT-29” value (HT-29) was “markedly decreased the toxicity”, the “potency in HCT116 p53+/+ compared with HCT116 p53−/−” value [4] was “statistically similar” and the IC50 [5] was 85 ± 11 nM. For the same molecule, the “IC50 lower in HT-29 cells than IC50 of cisplatin” value [5] was 300 fold, the IC50 [6, 12] was 42 ± 15 nM and the IC50 [6, 13] was 42 ± 15 nM. For the same molecule, the IC50 [7] was 475 ± 161 nM, the IC50 (U2OS; [14]) was 274 ± 6 nM and the IC50 (U2OS; [15]) was 274 ± 6 nM.

`C[O][Re-2]1(=[O])([Cl])([Cl])[n+]2cc(C)c(C)c3ccc4c(C)c(C)c[n+]1c4c32` [Compound 2, [ReO(OMe)(3,4,7,8-tetramethyl-1,10-phenanthroline)Cl2]] was tested, and the “acute toxicity in mice, gauged by weight loss” value (C57BL/6 mice) was “no toxicity”, the IC50 (NTERA-2) was 255 ± 35 nM and the IC50 (MRC-5; [8]) was 709 ± 76 nM. For the same molecule, the IC50 (MRC-5; [9]) was 709 ± 76 nM, the “selectivity over normal fibroblast cells (IC50 higher in normal fibroblasts than in cancer cells)” value (MRC-5) was “about 10 fold” and the IC50 [1] was 1370 ± 84 nM. For the same molecule, the IC50 [2] was 780 ± 10 nM, the IC50 [3, 10] was 695 ± 21 nM and the IC50 [3, 11] was 695 ± 21 nM. For the same molecule, the “effect of co-incubation with necrostatin-1 on toxicity, HT-29” value (HT-29) was “markedly decreased the toxicity”, the “potency in HCT116 p53+/+ compared with HCT116 p53−/−” value [4] was “statistically similar” and the IC50 [5] was 95 ± 20 nM. The “IC50 lower in HT-29 cells than IC50 of cisplatin” value [5] was 300 fold, the IC50 [6, 12] was 56 ± 2 nM and the IC50 [6, 13] was 56 ± 2 nM. It also gave an IC50 [7] of 1740 ± 275 nM, an IC50 (U2OS; [14]) of 209 ± 31 nM and an IC50 (U2OS; [15]) of 209 ± 31 nM.
